This assay deals with T1, human kinase Mps-1 (Homo sapiens, UniProt P33981).
T1 construct: N-terminally GST-tagged human full length recombinant Mps-1 kinase; GST (N); purchased Invitrogen, Karslruhe, Germany PV4071
T1 sequence (P33981 1-857): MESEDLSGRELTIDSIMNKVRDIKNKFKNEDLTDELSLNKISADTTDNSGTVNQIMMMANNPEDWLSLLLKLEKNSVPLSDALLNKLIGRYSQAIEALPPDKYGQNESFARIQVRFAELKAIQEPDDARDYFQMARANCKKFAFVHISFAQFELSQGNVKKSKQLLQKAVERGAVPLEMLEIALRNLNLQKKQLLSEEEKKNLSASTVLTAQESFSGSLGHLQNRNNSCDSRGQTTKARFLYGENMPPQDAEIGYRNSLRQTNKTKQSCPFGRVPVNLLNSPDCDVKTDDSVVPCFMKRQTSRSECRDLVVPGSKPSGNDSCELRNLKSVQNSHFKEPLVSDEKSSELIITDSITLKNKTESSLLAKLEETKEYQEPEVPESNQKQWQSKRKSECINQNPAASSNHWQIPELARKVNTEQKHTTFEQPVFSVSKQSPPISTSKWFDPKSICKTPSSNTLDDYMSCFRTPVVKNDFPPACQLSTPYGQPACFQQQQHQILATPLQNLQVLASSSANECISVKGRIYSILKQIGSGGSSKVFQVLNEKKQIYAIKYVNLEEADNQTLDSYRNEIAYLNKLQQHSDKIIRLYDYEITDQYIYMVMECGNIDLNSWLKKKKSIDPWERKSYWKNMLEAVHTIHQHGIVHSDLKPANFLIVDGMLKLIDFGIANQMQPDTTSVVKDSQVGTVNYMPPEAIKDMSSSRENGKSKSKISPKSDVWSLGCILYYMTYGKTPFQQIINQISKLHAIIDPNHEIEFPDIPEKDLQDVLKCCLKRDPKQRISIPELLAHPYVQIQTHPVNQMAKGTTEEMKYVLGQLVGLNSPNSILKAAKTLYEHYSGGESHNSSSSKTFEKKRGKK
Put plainly: Mps-1 kinase assay (TR-FRET). The conditions noted are these: GST-tagged human full length recombinant Mps-1; 10 μM ATP; 1 μM peptide substrate; 60 min at 22° C. Format: biochemical. The method, then:
The human kinase Mps-1 phosphorylates a biotinylated substrate peptide. Detection of the phosphorylated product is achieved by time-resolved fluorescence resonance energy transfer (TR-FRET) from Europium-labelled anti-phospho-Serine/Threonine antibody as donor to streptavidin labelled with cross-linked allophycocyanin (SA-XLent) as acceptor. Compounds are tested for their inhibition of the kinase activity.
N-terminally GST-tagged human full length recombinant Mps-1 kinase (purchased from Invitrogen, Karslruhe, Germany, cat. no PV4071) was used. As substrate for the kinase reaction a biotinylated peptide of the amino-acid sequence […] (C-terminus in amide form, purchased from Biosynthan GmbH, Berlin) was used.
The concentration of Mps-1 in the assay was adjusted to the activity of the enzyme lot and was chosen appropriate to have the assay in the linear range, typical enzyme concentrations were in the range of about 1 nM (final conc. in the 5 μl assay volume).
The resulting mixture was incubated 1 h at 22° C. to allow the binding of the phosphorylated peptide to the anti-phospho(Ser/Thr)-Europium-antibody. Subsequently the amount of phosphorylated substrate was evaluated by measurement of the resonance energy transfer from the Europium-labelled anti-phospho(Ser/Thr) antibody to the Streptavidin-XLent. Therefore, the fluorescence emissions at 620 nm and 665 nm after excitation at 350 nm was measured in a Viewlux TR-FRET reader (PerkinElmer LAS, Rodgau-Jügesheim, Germany). The “blank-corrected normalized ratio” (a Viewlux specific readout, similar to the traditional ratio of the emissions at 665 nm and at 622 nm, in which blank and Eu-donor crosstalk are subtracted from the 665 nm signal before the ratio is calculated) was taken as the measure for the amount of phosphorylated substrate.
A general note: Time-resolved FRET reads energy transfer from a long-lived donor to a nearby acceptor.

Among the data in patent US20140135319A1, “6-SUBSTITUTED IMIDAZOPYRAZINES FOR USE AS MPS-1 AND TKK INHIBITORS IN THE TREATMENT OF HYPERPROLIFERATIVE DISORDERS” (BAYER INTELLECTUAL PROPERTY GMBH, priority 2010, published 2014) are IC50 values, retold here.

Each structure is given as a SMILES string.

Turning to `CC(C)CNc1nc(-c2ccncc2)cn2c(-c3ccc(C(=O)NC4CC4)cc3)cnc12` [Example 1-1, N-cyclopropyl-4-{8-[(2-methylpropyl)amino]-6-(pyridin-4-yl)imidazo[1,2-a]pyrazin-3-yl}benzamide], the IC50 (commonly the concentration at which inhibition is half-maximal) worked out at 1.8 nM.

Regarding `CC(C)CNc1nc(-c2cnc3ccccc3c2)cn2c(-c3ccc(C(=O)NC4CC4)cc3)cnc12` [Example 1-2, N-cyclopropyl-4-{8-[(2-methylpropyl)amino]-6-(quinolin-3-yl)imidazo [1,2-a]pyrazin-3-yl} benzamide], the IC50 came out at 43.8 nM.

As to `COc1ncc(-c2cn3c(-c4ccc(C(=O)NC5CC5)cc4)cnc3c(NCC(C)C)n2)cn1` [Example 1-3, N-cyclopropyl-4-{6-(2-methoxypyrimidin-5-yl)-8-[(2-methylpropyl)amino]imidazo[1,2-a]pyrazin-3-yl}benzamide], the IC50 is 12.7 nM.

`CC(C)CNc1nc(-c2ccnc3ccccc23)cn2c(-c3ccc(C(=O)NC4CC4)cc3)cnc12` [Example 1-4, N-cyclopropyl-4-{8-[(2-methylpropyl)amino]-6-(quinolin-4-yl)imidazo [1,2-a]pyrazin-3-yl} benzamide]: the IC50 came to 3.3 nM.

Consider `CC(C)CNc1nc(-c2ccc(F)nc2)cn2c(-c3ccc(C(=O)NC4CC4)cc3)cnc12` [Example 1-5, N-cyclopropyl-4-{6-(6-fluoropyridin-3-yl)-8-[(2-methylpropyl)amino]imidazo[1,2-a]pyrazin-3-yl}benzamide], for which the IC50 was found to be 4.2 nM.

For `CC(C)CNc1nc(-c2ccc3c(ccn3C)c2)cn2c(-c3ccc(C(=O)NC4CC4)cc3)cnc12` [Example 1-6, N-cyclopropyl-4-{6-(1-methyl-1H-indol-5-yl)-8-[(2-methylpropyl)amino]imidazo[1,2-a]pyrazin-3-yl}benzamide], the IC50 turned out to be 6.8 nM.

In the case of `CC(C)CNc1nc(-c2ccnc(Cl)c2)cn2c(-c3ccc(C(=O)NC4CC4)cc3)cnc12` [Example 1-7, 4-{6-(2-chloropyridin-4-yl)-8-[(2-methylpropyl)amino]imidazo[1,2-a]pyrazin-3-yl}-N-cyclo-propylbenzamide], the IC50 amounted to 4.2 nM.

As for `CC(C)CNc1nc(-c2cnn(C)c2)cn2c(-c3ccc(C(=O)NC4CC4)cc3)cnc12` [Example 1-8, N-cyclopropyl-4-{8-[(2-methylpropyl)amino]-6-(1-methyl-1H-pyrazol-4-yl)imidazo[1,2-a]pyrazin-3-yl}benzamide], the IC50 was 4.6 nM.

In the case of `CC(C)CNc1nc(-c2cccs2)cn2c(-c3ccc(C(=O)NC4CC4)cc3)cnc12` [Example 1-9, N-cyclopropyl-4-{8-[(2-methylpropyl)amino]-6-(thiophen-2-yl)imidazo [1,2-a]pyrazin-3-yl} benzamide], the half-maximal inhibitory concentration (IC50) is 8 nM.

For the compound `CC(C)CNc1nc(-c2ccsc2)cn2c(-c3ccc(C(=O)NC4CC4)cc3)cnc12` [Example 1-10, N-cyclopropyl-4-{8-[(2-methylpropyl)amino]-6-(thiophen-3-yl)imidazo [1,2-a]pyrazin-3-yl} benzamide], the IC50 is 3.4 nM.

`CC(C)CNc1nc(-c2cc3ccccc3o2)cn2c(-c3ccc(C(=O)NC4CC4)cc3)cnc12` [Example 1-11, 4-{6-(1-benzofuran-2-yl)-8-[(2-methylpropyl)amino]imidazo[1,2-a]pyrazin-3-yl}-N-cyclo-propylbenzamide]: the IC50 is 78.8 nM.

As for `CC(C)CNc1nc(-c2cc3ccccc3s2)cn2c(-c3ccc(C(=O)NC4CC4)cc3)cnc12` [Example 1-12, 4-{6-(1-benzothiophen-2-yl)-8-[(2-methylpropyl)amino]imidazo[1,2-a]pyrazin-3-yl}-N-cyclo-propylbenzamide], the IC50 came out at 142 nM.

Turning to `CC(C)CNc1nc(-c2ccnn2C)cn2c(-c3ccc(C(=O)NC4CC4)cc3)cnc12` [Example 1-13, N-cyclopropyl-4-{8-[(2-methylpropyl)amino]-6-(1-methyl-1H-pyrazol-5-yl)imidazo[1,2-a]pyrazin-3-yl}benzamide], the IC50 came out at 29.5 nM.

`CC(C)CNc1nc(-c2csc3ccccc23)cn2c(-c3ccc(C(=O)NC4CC4)cc3)cnc12` [Example 1-14, 4-{6-(1-benzothiophen-3-yl)-8-[(2-methylpropyl)amino]imidazo[1,2-a]pyrazin-3-yl}-N-cyclo-propylbenzamide]: the IC50 amounted to 6.9 nM.

With `Cc1ccc(-c2cn3c(-c4ccc(C(=O)NC5CC5)cc4)cnc3c(NCC(C)C)n2)s1` [Example 1-15, N-cyclopropyl-4-{8-[(2-methylpropyl)amino]-6-(5-methylthiophen-2-yl)imidazo[1,2-a]pyrazin-3-yl}benzamide], the IC50 worked out at 55.4 nM.

Regarding `Cc1ccc2sc(-c3cn4c(-c5ccc(C(=O)NC6CC6)cc5)cnc4c(NCC(C)C)n3)cc2c1` [Example 1-16, N-cyclopropyl-4-{6-(5-methyl-1-benzothiophen-2-yl)-8-[(2-methylpropyl)amino]imidazo[1,2-a]pyrazin-3-yl}benzamide], the IC50 was 104 nM.

`CC(C)CNc1nc(-c2cncnc2)cn2c(-c3ccc(C(=O)NC4CC4)cc3)cnc12` [Example 1-17, N-cyclopropyl-4-{8-[(2-methylpropyl)amino]-6-(pyrimidin-5-yl)imidazo [1,2-a]pyrazin-3-yl} benzamide]: the 50% inhibitory concentration (IC50) stood at 16.5 nM.

Regarding `CC(=O)NCc1ccc(-c2cn3c(-c4ccc(C(=O)NC5CC5)cc4)cnc3c(NCC(C)C)n2)cc1` [Example 1-18, 4-(6-{4-[(acetylamino)methyl]phenyl}-8-[(2-methylpropyl)amino]imidazo[1,2-a]pyrazin-3-yl)-N-cyclopropyl-benzamide], the IC50 stood at 1.6 nM.

`CC(C)CNc1nc(-c2ccc3nccn3c2)cn2c(-c3ccc(C(=O)NC4CC4)cc3)cnc12` [Example 1-19, N-cyclopropyl-4-{6-(imidazo[1,2-a]pyridin-6-yl)-8-[(2-methylpropyl)amino]imidazo[1,2-a]pyrazin-3-yl}benzamide]: the IC50 turned out to be 2.2 nM.

Turning to `Cc1ccc(-c2cn3c(-c4ccc(C(=O)NC5CC5)cc4)cnc3c(NCC(C)C)n2)cn1` [Example 1-20, N-cyclopropyl-4-{8-[(2-methylpropyl)amino]-6-(6-methylpyridin-3-yl)imidazo[1,2-a]pyrazin-3-yl}benzamide], the IC50 amounted to 2.9 nM.

For `CC(C)CNc1nc(-c2cncc(F)c2)cn2c(-c3ccc(C(=O)NC4CC4)cc3)cnc12` [Example 1-21, N-cyclopropyl-4-{6-(5-fluoropyridin-3-yl)-8-[(2-methylpropyl)amino]imidazo[1,2-a]pyrazin-3-yl}benzamide], the IC50 turned out to be 19.4 nM.

As for `Cc1nnc(-c2ccc(-c3cn4c(-c5ccc(C(=O)NC6CC6)cc5)cnc4c(NCC(C)C)n3)cc2)o1` [Example 1-22, N-cyclopropyl-4-{6-[4-(5-methyl-1,3,4-oxadiazol-2-yl)phenyl]-8-[(2-methylpropyl)amino]imidazo[1,2-a]pyrazin-3-yl}benzamide], the half-inhibitory concentration (IC50) is 2.3 nM.

As for `CC(C)CNc1nc(-c2ccc(S(=O)(=O)n3cccc3)cc2)cn2c(-c3ccc(C(=O)NC4CC4)cc3)cnc12` [Example 1-23, N-cyclopropyl-4-{8-[(2-methylpropyl)amino]-6-[4-(1H-pyrrol-1-yl-sulonyl)phenyl]imidazo [1,2-a]pyrazin-3-yl} benzamide], the IC50 was 13.1 nM.

Regarding `CC(C)CNc1nc(-c2cncc(C(=O)NC(C)(C)C)c2)cn2c(-c3ccc(C(=O)NC4CC4)cc3)cnc12` [Example 1-24, N-tert-butyl-5-{3-[4-(cyclopropylcarbamoyl)phenyl]-8-[(2-methyl-propyl)amino]imidazo [1,2-a]pyrazin-6-yl} pyridine-3-carboxamide], the IC50 turned out to be 19.4 nM.
